“And” between values parts separate entries of the source, which are not always exact repeats. Equal values may be shown once. “Also recorded” adds a separate entry of the source.
Experiments:
LC-HK2 cells = test: Cell viability assay (CellTiter-Glo), LC-HK2; type: cell-based, human; conditions: LC-HK2, 72 h, replicates
Procedure: VERO-CCL81 was seeded in 96-well plates at a density of 1.5×10^4 cells/well, while LC-HK2 was seeded at a density of 3×10^4 cells/well, following 24 h incubation at 37 °C and 5% CO2 atmosphere. The cell culture media was replaced by serial dilutions of the compounds and the cell viability was determined 72 h post-treatment via CellTiter-Glo® Luminescent Cell Viability Assay (Promega), following the manufacturer’s instructions. Luminescent signal was recorded using a CLARIOstar multi-mode microplate reader (BMG Labtech, Germany). Graphs were generated using GraphPad Prism software version 8.0 (La Jolla, CA, USA, www.graphpad.com). Samples deemed to be technical failures and extreme outlier were removed.

[1] = S-Calpeptin toxicity experiment in Golden Syrian hamsters (weight, blood cell count, histopathology); type: in vivo, Golden Syrian hamsters (Mesocricetus auratus); set-up: leukocytes / neutrophils / lymphocytes / monocytes: unit not given here; conditions: for leukocytes / lymphocytes / monocytes / neutrophils: blood cell count
CatL = molecular target: T1, CatL (Homo sapiens, UniProt P07711); test: Reversibility of covalent cathepsin inhibition (CatL, 60 min incubation); type: biochemical; conditions: 1 nM CatL, 1–80 nM inhibitor, 37 °C
T1 construct: made in house
T1 sequence (P07711 114-333): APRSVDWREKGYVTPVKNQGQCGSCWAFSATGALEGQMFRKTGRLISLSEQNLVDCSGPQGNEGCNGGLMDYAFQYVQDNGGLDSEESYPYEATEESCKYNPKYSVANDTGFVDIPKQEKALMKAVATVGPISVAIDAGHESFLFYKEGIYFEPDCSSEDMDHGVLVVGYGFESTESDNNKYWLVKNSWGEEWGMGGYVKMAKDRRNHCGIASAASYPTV
Excerpt: We observed no increase in relative inhibition over time, thus concluding that the covalent bond between cathepsins and inhibitors is reversible.

[2] = 1 mg/kg S-Calpeptin, individual animals 1-3, 1 mg/kg
[3] = 2 mg/kg S-Calpeptin, individual animals 7-9, 2 mg/kg
[4] = 3 mg/kg S-Calpeptin, individual animals 10-12, 3 mg/kg

Compound: CCCC[C@H](NC(=O)[C@H](CC(C)C)NC(=O)OCc1ccccc1)C(O)S(=O)(=O)[O-].[Na+] (stereo partly shown) [S-Calpeptin]
- Cell viability (% control) (LC-HK2 cells; 0.0012 μM): 103 % control and 98.5 % control and 94.37 % control
- Cell viability (% control) (LC-HK2 cells; 0.0024 μM): 103.56 % control and 100.06 % control and 97.94 % control
- Cell viability (% control) (LC-HK2 cells; 0.0049 μM): 100.56 % control and 101.52 % control and 96.13 % control
- Cell viability (% control) (LC-HK2 cells; 0.0098 μM): 103.39 % control and 98.29 % control and 93.66 % control
- Cell viability (% control) (LC-HK2 cells; 0.0195 μM): 101 % control and 102.2 % control and 97.31 % control
- Cell viability (% control) (LC-HK2 cells; 0.0391 μM): 101.11 % control and 100.82 % control and 93.61 % control
- Cell viability (% control) (LC-HK2 cells; 0.0781 μM): 95.36 % control and 95.43 % control and 89.73 % control and 94.91 % control and 94.76 % control and 87.15 % control
- Cell viability (% control) (LC-HK2 cells; 0.1563 μM): 94.91 % control and 93.6 % control and 89 % control and 98.33 % control and 105.61 % control and 98.34 % control
- Cell viability (% control) (LC-HK2 cells; 0.3125 μM): 97.71 % control and 92.81 % control and 89.53 % control and 99.96 % control and 101.2 % control
- Cell viability (% control) (LC-HK2 cells; 0.625 μM): 99.27 % control and 95.19 % control and 89.18 % control and 98.53 % control and 102.88 % control and 100.16 % control
- Cell viability (% control) (LC-HK2 cells; 1.25 μM): 94.67 % control and 92.11 % control and 87.48 % control and 95.09 % control and 95.4 % control and 94.79 % control
- Cell viability (% control) (LC-HK2 cells; 2.5 μM): 94.03 % control and 92.7 % control and 88.37 % control and 89.79 % control and 94.67 % control and 93.9 % control
- Cell viability (% control) (LC-HK2 cells; 5 μM): 91.36 % control and 87.95 % control and 86.97 % control and 86.06 % control and 93.58 % control and 92 % control
- Cell viability (% control) (LC-HK2 cells; 10 μM): 83.09 % control and 79.77 % control and 75 % control and 90.37 % control and 93.49 % control and 89.11 % control
- Cell viability (% control) (LC-HK2 cells; 100 μM): 73.52 % control and 81.33 % control and 73.97 % control
- body weight, summarized data, average ([1]; 1 mg/kg S-Calpeptin, day 0, relative to day 0): 100%
- body weight, summarized data, average ([1]; 1 mg/kg S-Calpeptin, day 1, relative to day 0): 100.862%
- body weight, individual data ([1]; 1 mg/kg S-Calpeptin, day 2, individual animals A1-A3): 124 g
- body weight, summarized data, average ([1]; 1 mg/kg S-Calpeptin, day 2, relative to day 0): 100.893%
- body weight, summarized data, average ([1]; 1 mg/kg S-Calpeptin, day 3, relative to day 0): 100.862%
- body weight, summarized data, average ([1]; 1 mg/kg S-Calpeptin, day 4, relative to day 0): 101.724%
- body weight, summarized data, average ([1]; 1 mg/kg S-Calpeptin, day 5, relative to day 0): 102.852%
- body weight, summarized data, average ([1]; 1 mg/kg S-Calpeptin, day 6, relative to day 0): 102.288%
- body weight, summarized data, average ([1]; 2 mg/kg S-Calpeptin, day 0, relative to day 0): 100%
- body weight, summarized data, average ([1]; 2 mg/kg S-Calpeptin, day 1, relative to day 0): 100.285%
- body weight, summarized data, average ([1]; 2 mg/kg S-Calpeptin, day 2, relative to day 0): 100.287%
- body weight, individual data ([1]; 2 mg/kg S-Calpeptin, day 3, individual animals A7-A9): 120 g
- body weight, summarized data, average ([1]; 2 mg/kg S-Calpeptin, day 3, relative to day 0): 101.388%
- body weight, summarized data, average ([1]; 2 mg/kg S-Calpeptin, day 4, relative to day 0): 100.836%
- body weight, summarized data, average ([1]; 2 mg/kg S-Calpeptin, day 5, relative to day 0): 101.368%
- body weight, individual data ([1]; 2 mg/kg S-Calpeptin, day 6, individual animals A7-A9): 120 g
- body weight, summarized data, average ([1]; 2 mg/kg S-Calpeptin, day 6, relative to day 0): 101.919%
- body weight, individual data ([1]; 3 mg/kg S-Calpeptin, day 0, individual animals A10-A12): 124 g and 135 g
- body weight, summarized data, average ([1]; 3 mg/kg S-Calpeptin, day 0, relative to day 0): 100%
- body weight, individual data ([1]; 3 mg/kg S-Calpeptin, day 1, individual animals A10-A12): 124 g and 135 g
- body weight, summarized data, average ([1]; 3 mg/kg S-Calpeptin, day 1, relative to day 0): 100.275%
- body weight, individual data ([1]; 3 mg/kg S-Calpeptin, day 2, individual animals A10-A12): 124 g and 135 g
- body weight, summarized data, average ([1]; 3 mg/kg S-Calpeptin, day 2, relative to day 0): 100.275%
- body weight, summarized data, average ([1]; 3 mg/kg S-Calpeptin, day 3, relative to day 0): 101.582%
- body weight, summarized data, average ([1]; 3 mg/kg S-Calpeptin, day 4, relative to day 0): 102.133%
- body weight, summarized data, average ([1]; 3 mg/kg S-Calpeptin, day 5, relative to day 0): 102.402%
- body weight, summarized data, average ([1]; 3 mg/kg S-Calpeptin, day 6, relative to day 0): 102.671%
- leukocytes [1, 2]: 4150 and 4010 and 4200
- lymphocytes [1, 2]: 2407 and 2366 and 2310
- monocytes [1, 2]: 581 and 521 and 798
- neutrophils [1, 2]: 1079 and 1083 and 924
- leukocytes [1, 3]: 1780 and 2200 and 1620
- lymphocytes [1, 3]: 1104 and 748 and 486
- monocytes [1, 3]: 214 and 352 and 680
- neutrophils [1, 3]: 427 and 1056 and 389
- leukocytes [1, 4]: 3000 and 1360 and 2190
- lymphocytes [1, 4]: 1860 and 653 and 1270
- monocytes [1, 4]: 450 and 163 and 350
- neutrophils [1, 4]: 630 and 517 and 569
- blood cell count finding (in words) ([1]; hamsters, 2 mg/kg or 3 mg/kg s.c. daily, end of seven-days protocol): marked leukopenia; also recorded: blood leukopenia
- acute toxicity-related clinical signs or weight loss (in words) ([1]; hamsters, 1, 2 or 3 mg/kg s.c. daily): no signs of acute toxicity; also recorded: did not display acute toxicity-related clinical signs
- side effects (in words) ([1]; hamsters, daily dose of 1 mg/kg s.c. over seven days): no apparent side effects
- reversibility of covalent bond to cathepsin (CatL): reversible

From article PMC10584882 (Communications Biology, 2023)
